{"source": "ChEMBL document CHEMBL1151099", "about": "“Synthesis of new TNF- Inhibitors and their biological properties” (Bioorg Med Chem Lett, 1996)", "assay_type_in_all_cases": "functional", "key": {"Mus musculus [1]": {"species": "Mus musculus", "experiment": "In vitro inhibitory activity against TNF-alpha production in mouse macrophages stimulated with LPS"}, "Mus musculus [2]": {"system": "Mus musculus", "experiment": "Protection against LPS-induced death of D-galactosamine-sensitized mice (10 in number) at specified dose of 50 mg/kg on day 7"}, "Mus musculus [3]": {"system": "Mus musculus", "experiment": "Protection against LPS-induced death of D-galactosamine-sensitized mice (10 in number) at specified dose of 100 mg/kg on day 7"}, "Mus musculus [4]": {"system": "Mus musculus", "experiment": "Protection against LPS-induced death of D-galactosamine-sensitized mice (10 in number) at specified dose of 0 mg/kg on day 7"}}, "data": [{"smiles": "COc1cc2c(cc1OC)C1Cc3cc4c(cc3C(C2)N1C(C)=O)OCO4", "note": "(stereo not drawn)", "values": [{"measurement": "IC50", "setting": "Mus musculus [1]", "result": 22, "unit": "µM"}]}, {"smiles": "CC(=O)N1C2Cc3cc(O)c(O)cc3C1Cc1cc(O)c(O)cc12", "values": [{"measurement": "IC50", "setting": "Mus musculus [1]", "result": "> 100", "unit": "µM"}]}, {"smiles": "COCC(=O)N1C2Cc3cc4c(cc3C1Cc1cc3c(cc12)OCO3)OCO4", "values": [{"measurement": "IC50", "setting": "Mus musculus [1]", "result": 17, "unit": "µM"}]}, {"smiles": "COc1cc2c(cc1OC)C1Cc3cc4c(cc3C(C2)N1)OCO4", "note": "(stereo not drawn)", "values": [{"measurement": "IC50", "setting": "Mus musculus [1]", "result": 100, "unit": "µM"}]}, {"smiles": "CCOC(=O)C(=O)N1C2Cc3cc4c(cc3C1Cc1cc3c(cc12)OCO3)OCO4", "values": [{"measurement": "Survival rate", "setting": "Mus musculus [2]", "result": "3 number of mice"}, {"measurement": "Survival rate", "setting": "Mus musculus [3]", "result": "2 number of mice"}, {"measurement": "Survival rate", "setting": "Mus musculus [4]", "result": "0 number of mice"}, {"measurement": "IC50", "setting": "Mus musculus [1]", "result": 15, "unit": "µM"}]}, {"smiles": "CCCN1C2Cc3cc4c(cc3C1Cc1cc3c(cc12)OCO3)OCO4", "values": [{"measurement": "IC50", "setting": "Mus musculus [1]", "result": 56, "unit": "µM"}]}, {"smiles": "CN1C2Cc3cc4c(cc3C1Cc1cc3c(cc12)OCO3)OCO4", "values": [{"measurement": "IC50", "setting": "Mus musculus [1]", "result": 19, "unit": "µM"}]}, {"smiles": "O=C(CO)N1C2Cc3cc4c(cc3C1Cc1cc3c(cc12)OCO3)OCO4", "values": [{"measurement": "Survival rate", "setting": "Mus musculus [2]", "result": "6 number of mice"}, {"measurement": "Survival rate", "setting": "Mus musculus [3]", "result": "9 number of mice"}, {"measurement": "Survival rate", "setting": "Mus musculus [4]", "result": "0 number of mice"}, {"measurement": "IC50", "setting": "Mus musculus [1]", "result": 20, "unit": "µM"}]}, {"smiles": "CC(=O)Oc1cc2c(cc1OC(C)=O)C1Cc3cc(OC(C)=O)c(OC(C)=O)cc3C(C2)N1C(C)=O", "values": [{"measurement": "IC50", "setting": "Mus musculus [1]", "result": "> 100", "unit": "µM"}]}, {"smiles": "Oc1cc2c(cc1O)C1Cc3cc4c(cc3C(C2)N1)OCO4", "note": "(stereo not drawn)", "values": [{"measurement": "IC50", "setting": "Mus musculus [1]", "result": 44, "unit": "µM"}]}, {"smiles": "NCCCN1C2Cc3cc4c(cc3C1Cc1cc3c(cc12)OCO3)OCO4", "values": [{"measurement": "IC50", "setting": "Mus musculus [1]", "result": 52, "unit": "µM"}]}, {"smiles": "NCCN1C2Cc3cc4c(cc3C1Cc1cc3c(cc12)OCO3)OCO4", "values": [{"measurement": "Survival rate", "setting": "Mus musculus [2]", "result": "8 number of mice"}, {"measurement": "Survival rate", "setting": "Mus musculus [3]", "result": "8 number of mice"}, {"measurement": "Survival rate", "setting": "Mus musculus [4]", "result": "0 number of mice"}, {"measurement": "IC50", "setting": "Mus musculus [1]", "result": 14, "unit": "µM"}]}, {"smiles": "COc1cc2c(cc1OC)C1Cc3cc(OC)c(OC)cc3C(C2)N1C(C)=O", "values": [{"measurement": "IC50", "setting": "Mus musculus [1]", "result": 38, "unit": "µM"}]}, {"smiles": "CC(=O)N1C2Cc3cc4c(cc3C1Cc1cc3c(cc12)OCO3)OCO4", "values": [{"measurement": "Survival rate", "setting": "Mus musculus [2]", "result": "7 number of mice"}, {"measurement": "Survival rate", "setting": "Mus musculus [3]", "result": "9 number of mice"}, {"measurement": "Survival rate", "setting": "Mus musculus [4]", "result": "0 number of mice"}, {"measurement": "IC50", "setting": "Mus musculus [1]", "result": 13, "unit": "µM"}]}, {"smiles": "CCCC(=O)N1C2Cc3cc4c(cc3C1Cc1cc3c(cc12)OCO3)OCO4", "values": [{"measurement": "Survival rate", "setting": "Mus musculus [2]", "result": "4 number of mice"}, {"measurement": "Survival rate", "setting": "Mus musculus [3]", "result": "5 number of mice"}, {"measurement": "Survival rate", "setting": "Mus musculus [4]", "result": "0 number of mice"}, {"measurement": "IC50", "setting": "Mus musculus [1]", "result": 11, "unit": "µM"}]}, {"smiles": "CCOC(=O)N1C2Cc3cc4c(cc3C1Cc1cc3c(cc12)OCO3)OCO4", "values": [{"measurement": "Survival rate", "setting": "Mus musculus [2]", "result": "3 number of mice"}, {"measurement": "Survival rate", "setting": "Mus musculus [3]", "result": "3 number of mice"}, {"measurement": "Survival rate", "setting": "Mus musculus [4]", "result": "0 number of mice"}, {"measurement": "IC50", "setting": "Mus musculus [1]", "result": 31, "unit": "µM"}]}, {"smiles": "CC(=O)CCCCn1c(=O)c2c(ncn2C)n(C)c1=O", "note": "[PENTOXIFYLLINE]", "values": [{"measurement": "Survival rate", "setting": "Mus musculus [3]", "result": "4 number of mice"}, {"measurement": "Survival rate", "setting": "Mus musculus [4]", "result": "0 number of mice"}, {"measurement": "IC50", "setting": "Mus musculus [1]", "result": 68, "unit": "µM"}]}, {"smiles": "CCCCN1C2Cc3cc4c(cc3C1Cc1cc3c(cc12)OCO3)OCO4", "values": [{"measurement": "IC50", "setting": "Mus musculus [1]", "result": 58, "unit": "µM"}]}, {"smiles": "CCOC(=O)CC(=O)N1C2Cc3cc4c(cc3C1Cc1cc3c(cc12)OCO3)OCO4", "values": [{"measurement": "Survival rate", "setting": "Mus musculus [2]", "result": "2 number of mice"}, {"measurement": "Survival rate", "setting": "Mus musculus [3]", "result": "3 number of mice"}, {"measurement": "Survival rate", "setting": "Mus musculus [4]", "result": "0 number of mice"}, {"measurement": "IC50", "setting": "Mus musculus [1]", "result": 26, "unit": "µM"}]}, {"smiles": "CCC(=O)N1C2Cc3cc4c(cc3C1Cc1cc3c(cc12)OCO3)OCO4", "values": [{"measurement": "Survival rate", "setting": "Mus musculus [2]", "result": "8 number of mice"}, {"measurement": "Survival rate", "setting": "Mus musculus [3]", "result": "8 number of mice"}, {"measurement": "Survival rate", "setting": "Mus musculus [4]", "result": "0 number of mice"}, {"measurement": "IC50", "setting": "Mus musculus [1]", "result": 11, "unit": "µM"}]}, {"smiles": "OCCN1C2Cc3cc4c(cc3C1Cc1cc3c(cc12)OCO3)OCO4", "values": [{"measurement": "Survival rate", "setting": "Mus musculus [2]", "result": "7 number of mice"}, {"measurement": "Survival rate", "setting": "Mus musculus [3]", "result": "9 number of mice"}, {"measurement": "Survival rate", "setting": "Mus musculus [4]", "result": "0 number of mice"}, {"measurement": "IC50", "setting": "Mus musculus [1]", "result": 36, "unit": "µM"}]}, {"smiles": "CCN1C2Cc3cc4c(cc3C1Cc1cc3c(cc12)OCO3)OCO4", "values": [{"measurement": "Survival rate", "setting": "Mus musculus [2]", "result": "9 number of mice"}, {"measurement": "Survival rate", "setting": "Mus musculus [3]", "result": "10 number of mice"}, {"measurement": "Survival rate", "setting": "Mus musculus [4]", "result": "0 number of mice"}, {"measurement": "IC50", "setting": "Mus musculus [1]", "result": 27, "unit": "µM"}]}, {"smiles": "O=C(CCO)N1C2Cc3cc4c(cc3C1Cc1cc3c(cc12)OCO3)OCO4", "values": [{"measurement": "Survival rate", "setting": "Mus musculus [2]", "result": "5 number of mice"}, {"measurement": "Survival rate", "setting": "Mus musculus [3]", "result": "6 number of mice"}, {"measurement": "Survival rate", "setting": "Mus musculus [4]", "result": "0 number of mice"}, {"measurement": "IC50", "setting": "Mus musculus [1]", "result": 27, "unit": "µM"}]}, {"smiles": "CNC(=O)N1C2Cc3cc4c(cc3C1Cc1cc3c(cc12)OCO3)OCO4", "values": [{"measurement": "Survival rate", "setting": "Mus musculus [2]", "result": "6 number of mice"}, {"measurement": "Survival rate", "setting": "Mus musculus [3]", "result": "6 number of mice"}, {"measurement": "Survival rate", "setting": "Mus musculus [4]", "result": "0 number of mice"}, {"measurement": "IC50", "setting": "Mus musculus [1]", "result": 15, "unit": "µM"}]}, {"smiles": "c1c2c(cc3c1OCO3)C1Cc3cc4c(cc3C(C2)N1)OCO4", "values": [{"measurement": "Survival rate", "setting": "Mus musculus [2]", "result": "7 number of mice"}, {"measurement": "Survival rate", "setting": "Mus musculus [3]", "result": "10 number of mice"}, {"measurement": "Survival rate", "setting": "Mus musculus [4]", "result": "0 number of mice"}, {"measurement": "IC50", "setting": "Mus musculus [1]", "result": 15, "unit": "µM"}]}, {"smiles": "CC(=O)N1C2Cc3cc4c(cc3C1Cc1cc3c(cc12)OCCO3)OCCO4", "values": [{"measurement": "Survival rate", "setting": "Mus musculus [2]", "result": "4 number of mice"}, {"measurement": "Survival rate", "setting": "Mus musculus [3]", "result": "7 number of mice"}, {"measurement": "Survival rate", "setting": "Mus musculus [4]", "result": "0 number of mice"}, {"measurement": "IC50", "setting": "Mus musculus [1]", "result": 34, "unit": "µM"}]}, {"smiles": "O=CN1C2Cc3cc4c(cc3C1Cc1cc3c(cc12)OCO3)OCO4", "values": [{"measurement": "Survival rate", "setting": "Mus musculus [2]", "result": "7 number of mice"}, {"measurement": "Survival rate", "setting": "Mus musculus [3]", "result": "7 number of mice"}, {"measurement": "Survival rate", "setting": "Mus musculus [4]", "result": "0 number of mice"}, {"measurement": "IC50", "setting": "Mus musculus [1]", "result": 22, "unit": "µM"}]}, {"smiles": "CC(=O)N1C2Cc3cc4c(cc3C1Cc1cc(O)c(O)cc12)OCO4", "note": "(stereo not drawn)", "values": [{"measurement": "IC50", "setting": "Mus musculus [1]", "result": 46, "unit": "µM"}]}, {"smiles": "Oc1cc2c(cc1O)C1Cc3cc(O)c(O)cc3C(C2)N1", "values": [{"measurement": "IC50", "setting": "Mus musculus [1]", "result": "> 100", "unit": "µM"}]}, {"smiles": "O=C(c1ccccc1)N1C2Cc3cc4c(cc3C1Cc1cc3c(cc12)OCO3)OCO4", "values": [{"measurement": "IC50", "setting": "Mus musculus [1]", "result": 38, "unit": "µM"}]}, {"smiles": "c1c2c(cc3c1OCCO3)C1Cc3cc4c(cc3C(C2)N1)OCCO4", "values": [{"measurement": "Survival rate", "setting": "Mus musculus [2]", "result": "1 number of mice"}, {"measurement": "Survival rate", "setting": "Mus musculus [3]", "result": "4 number of mice"}, {"measurement": "Survival rate", "setting": "Mus musculus [4]", "result": "0 number of mice"}, {"measurement": "IC50", "setting": "Mus musculus [1]", "result": 22, "unit": "µM"}]}, {"smiles": "COc1cc2c(cc1OC)C1Cc3cc(OC)c(OC)cc3C(C2)N1", "values": [{"measurement": "IC50", "setting": "Mus musculus [1]", "result": "> 100", "unit": "µM"}]}, {"smiles": "CCCCCC(=O)N1C2Cc3cc4c(cc3C1Cc1cc3c(cc12)OCO3)OCO4", "values": [{"measurement": "IC50", "setting": "Mus musculus [1]", "result": "> 100", "unit": "µM"}]}]}
